According to US8507219B2, “Method of treating inflammation with statins” (MUSC Foundation for Research Development, priority 1997, dated 2013):
Like-named read-outs stand apart in the source and are kept apart here.

Experiments:
[1] = test system: IL-6 production in rat primary microglia; test: LPS-induced IL-6 production (ELISA) in rat primary microglia; type: cell-based
[2] = test system: TNF-α production in rat primary microglia; test: LPS-induced TNF-α production (ELISA) in rat primary microglia; type: cell-based
Method: Determination of TNF-α and IL-1β in culture supernatants Cells were stimulated with LPS in serum-free media for 24 h in the presence or absence of forskolin or rolipram, and concentrations of TNF-α and IL-1β were measured in culture supernatants by using high-sensitivity enzyme-linked immunosorbent assay (R&D Systems, USA) according to the manufacturer's instructions.

[3] = test system: NO production in rat C6 glial cells; test: LPS-/cytokine-induced NO production (nitrite) in C6 glial cells; type: cell-based; details: for Nitrite / inhibition at 20000 µM: C6 glial cells, NAC 20 mM 2 h prior; for Nitrite: 24 h; for inhibition at 20000 µM: Rattus norvegicus, Glial cell
iNOS gene = iNOS gene transcription (nuclear run-on assay) in rat primary astrocytes; type: cell-based
Method: […]. In brief, the filters were prehybridized in 1 ml of hybridization buffer (50% formamide, 5×SSC, 1% SDS, 15% dextran sulfate, 1×Denhardt's solution, and 50 μg/ml heparin). After 24 h of prehybridization in the above buffer, hybridization was carried out with the labeled RNAs (1.3×10^5 cpm) at 42° C. for 60 h to 3 μg of the immobilized plasmid pGEM-T as a control, or to plasmids containing inserts of rat glyceraldehyde-3-phosphate dehydrogenase, rat actin, and human iNOS cDNAs. The filters were washed twice in 2×SSC, 0.1% SDS for 15 min at […], and twice in 0.5×SSC, 0.1% SDS for 15 min. Then the filters were treated with RNase buffer (300 mM NaCl, 10 mM TrisHCI, pH 7.4, 40 mM EDTA, 10 μg/ml RNase A, and 350 U/ml RNase T1) at 37° C. for 30 min, in the same buffer without RNases for another 30 min, and were then autoradiographed.

iNOS = test: Expression of iNOS protein (immunoblot) and mRNA (Northern) in rat primary astrocytes; type: cell-based
Method in brief: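 Cells incubated 24 h with or without stimuli (cytokines or LPS). iNOS protein detected by immunoblot with anti-mouse macrophage iNOS antibody and [^125I]-protein A. Northern blot: 20 μg total RNA hybridised at 68° C with ^32P-cDNA probe; iNOS mRNA quantified densitometrically relative to GAPDH rehybridisation.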

IFN-γ = test: Immunohistochemistry of IFN-γ in brain sections of EAE rats; type: in vivo, Lewis rats
Method: One group of animals induced for EAE was left untreated while another group of animals was not induced for EAE and used as the control group.
Immunohistochemistry Brains were fixed in 10% buffered formalin (Stephens Scientific, Riverdale, N.J.). The tissues were embedded in paraffin and sectioned at 4 μm. Sections were then stained for various cytokines and cell markers as described below. For single-label immunohistochemistry, sections were incubated with either anti-iNOS antibody (1:100, rabbit polyclonal, Calbiochem, LaJolla, Calif.) or anti-TNF-α antibody (1:100, rabbit polyclonal, Genzyme, Cambridge, Mass.) or anti-IFN-γ antibody (1:200, rabbit polyclonal, Biosource International, Camarillo, Calif.) essentially as described for other antibodies (Hooper et al., 1997). The tissue sections were further incubated with FITC conjugated anti-rabbit IgG (1:100, Sigma, St. Louis, Mo.), mounted with mounting media (EMS) and analyzed by immunofluorescence microscopy (Olympus) using Adobe photoshop software. For immunofluorescent double-labeling, sections were incubated first with anti-iNOS (1:100) followed by macrophage marker ED1 (1:100, mouse monoclonal, Biosource International, Camarillo, Calif.). Anti-iNOS was visualized using TRITC conjugated anti-rabbit IgG—(1:100, Sigma, St. Louis, Mo.) and ED1 using FITC conjugated anti-mouse IgG (1:100, Sigma, St. Louis, Mo.). […]

[4] = Microglia, 10 μM lovastatin or 5 mM NaPA 8 h, then LPS 1.0 μg/ml, 24 h

## CC[C@H](C)C(=O)O[C@H]1C[C@@H](C)C=C2C=C[C@H](C)[C@H](CC[C@@H]3C[C@@H](O)CC(=O)O3)[C@H]21 [Lovastatin]
[1]; [4]
  Production of IL-6: 7.8 ± 1.1 ng/24 h/mg protein
[2]; [4]
  Production of TNF-α: 0.9 ± 0.1 ng/24 h/mg protein
[3]
  LPS- and cytokine-induced NO production: inhibit LPS- and cytokine-induced NO production in rat C6 glial cells
iNOS gene; 10 μM lovastatin, 5 mM NaPA or 2 μM lovastatin and 2 mM NaPA 8 h, LPS 1.0 μg/ml 4 h
  LPS-induced nuclear transcription of the iNOS gene: inhibited the relative rate of LPS-induced nuclear transcription of the iNOS gene
iNOS; LPS 1.0 μg/ml
  LPS-mediated induction of iNOS protein and mRNA: significantly inhibited the LPS-mediated induction of iNOS protein and mRNA

## O=C([O-])Cc1ccccc1.[Na+] [NaPA, sodium salt of phenylacetic acid]
IFN-γ; rat, in vivo, ip
  expression of IFN-γ in EAE brain: blocked the induction of IFN-γ
[1]
  Production of IL-6: 9.3 ± 1.2 ng/24 h/mg protein
[2]
  Production of TNF-α: 1.3 ± 0.2 ng/24 h/mg protein
iNOS gene
  LPS-induced nuclear transcription of the iNOS gene: inhibited the relative rate of LPS-induced nuclear transcription of the iNOS gene
iNOS
  LPS-mediated induction of iNOS protein and mRNA: significantly inhibited the LPS-mediated induction of iNOS protein and mRNA

## CC(=O)N[C@@H](CS)C(=O)O [NAC, N-acetyl cysteine]
IFN-γ; daily i.p. treatment from day 1
  expression of IFN-γ in EAE brain: blocked the induction of IFN-γ
[3]; stimulus LPS + IFN-γ
  Nitrite: 8.2 ± 1.4 nmol/mg/24 h
  inhibition at 20000 µM: 74%
[3]; stimulus LPS + IL-1β
  Nitrite: 5.8 ± 1.2 nmol/mg/24 h
  inhibition at 20000 µM: 75%
[3]; stimulus LPS + TNF-α
  Nitrite: 7.1 ± 1.1 nmol/mg/24 h
  inhibition at 20000 µM: 79%
[3]; stimulus TNF-α + IFN-γ
  Nitrite: 8.4 ± 2.1 nmol/mg/24 h
  inhibition at 20000 µM: 73%
[3]; stimulus TNF-α + IL-1β
  Nitrite: 4.2 ± 0.8 nmol/mg/24 h
  inhibition at 20000 µM: 80%
